Data reported in patent US20250186475A1, “METHODS OF TREATING MEDICAL CONDITIONS USING ISLATRAVIR OR A RELATED COMPOUND” (ROME Therapeutics, Inc., priority 2022, published 2025).

How the values were obtained:
Format in all cases: cell-based
OVCAR-8 cells = assay: Cancer cell viability assay with 3D cell colonies (CellTiter-Glo), OVCAR-8; details: Homo sapiens, OVCAR-8, 168 h; 3D tumorsphere growth, 7 days
Protocol: (§1) Ovarian cancer cell line SK-OV-3 cells were cultured in McCoy's 5a media containing 10% FBS. Ovarian cancer cell line OVCAR-8 cells were cultured in RPMI media containing 10% FBS. Additional cancer cell lines were cultured in the following media: • Ovarian cancer SW756 cells—L-15 (100% air)+10% FBS • Esophageal cancer TE-1 cells—RPMI-1640+10% FBS • Esophageal cancer KYSE-410 cells—RPMI-1640+5˜10% FBS • Esophageal cancer KYSE-70 cells—RPMI-1640+10% h.i.FBS. • Pharyngeal cancer FaDu cells—MEM+0.01 mM NEAA+10% FBS
(§2) Cell colony formation was tested using a 3D methylcellulose-based CellTiter-Glo (CTG) viability assay (Cat. No: G7573, Promega). Briefly, cells were inoculated into 96-well plates (at 1,500 cells per well) into a solution of 0.65% methylcellulose in growth media and incubated overnight at 37° C. in 5% CO2. The next day, serially diluted test compound (islatravir) or positive control (cisplatin, Cat. No. 6J015A89, Qilu Pharma) were added at the indicated concentrations, and the cells were incubated for 7 days. On day seven, 100 μL of CTG reagent was added, and the plates were incubated at room temperature for 20 min. Luminescence was read on an Envision Multi Label Reader according to manufacturer's instructions. IC50 values were determined using the following calculation: […]

SW756 cells = assay: Cancer cell viability assay with 3D cell colonies (CellTiter-Glo), SW756; details: Homo sapiens, SW756, 168 h, 7 days
Protocol: as §1, §2

KYSE-410 cells = assay: Cancer cell viability assay with 3D cell colonies (CellTiter-Glo), KYSE-410; details: Homo sapiens, KYSE-410, 168 h, 7 days
Protocol: as §1, §2

[1] = test system: IFN-β production in PBMCs; assay: Decitabine-stimulated human PBMC assay; details: PBMCs with anti-CD3/anti-CD28 and 10 μM decitabine, 5 days
Protocol: EasySep buffer (32 mL, Stem Cell, cat. #20144) was used to dilute 8 mL of LRSC buffy coat (from fresh Leukopak) with gentle mixing. The diluted buffy coat (20 mL) was transferred into each of two SepMate 50 tubes, and the tubes were filled with 15 mL of Lyphoprep (Stem Cell, ct. #07851) density gradient. The SepMate tubes were then centrifuged at […] for 10 minutes at room temperature with the brake on. The top layer of supernatant was collected in SepMate tubes by quickly pouring it into a new 50 mL conical tube. The PBMCs were washed with EasySep buffer x2 by centrifuging at 300G for 5 minutes. The cells were resuspended in 30 mL of EasySep and centrifuged at 100G for 5 minutes with the brake off, and the platelets were removed. The cells were then resuspended in 6 mL of 1×RBC lysis buffer (InvitroGen) and incubated at 37° C. for 5 minutes. Then, 25 mL of EasySep buffer was mixed into the tube and it was centrifuged at 300G for 5 minutes. The cells were resuspended in 10 mL of EasySep buffer and the cells were then counted with Cellometer (AO/PI). The PBMCs were resuspended in RPMI1640 (ThermoFisher)+10% FBS (HyClone)+p/s at 3×10^6/mL. The PBMCs (100 μL, 300 k PBMCs) were then seeded in a 96-well flat bottom microplate (Corning) that had been precoated with 100 μL of anti-CD3 antibody (10 μg/mL in PBS, Biolegend) or PBS at 4° C., one day before the assay was commenced. […]

- IC50 (OVCAR-8 cells): 1.95 µM
- IC50 (SW756 cells): > 30 µM
- IC50 (KYSE-410 cells): > 30 µM
SMILES: C#C[C@]1(CO)O[C@@H](n2cnc3c(N)nc(F)nc32)C[C@@H]1O [Islatravir, (2R,3S,5R)-5-(6-amino-2-fluoro-9H-purin-9-yl)-2-ethynyl-2-(hydroxymethyl)tetrahydrofuran-3-ol]
- production of IFN-β [1]: activated production of IFN-β
